Data: US9353090B2, “Heterocyclic carboxylic acids as activators of soluble guanylate cyclase” (Boehringer Ingelheim International GmbH, priority 2014, dated 2016)
≈ marks a conversion by molar mass, not a printed value.

Key:
physchem = settings: kinetic from dmso stock
[1] = biological target: human soluble guanylate cyclase alpha 1 and beta 1 subunits (sGC) (Homo sapiens (Human), UniProt Q02108+Q02153); experiment: sGC cellular activator assay (cGMP, HTRF), in the presence and absence of 50% human serum; assay type: cell-based; settings: CHO cells stably expressing human sGC alpha 1/beta 1, preincubated with 40 microM ODQ; cGMP by HTRF; Table 2 does not state whether with or without 50% human serum
human soluble guanylate cyclase alpha 1 and beta 1 subunits (sGC), sequence (Q02108 whole entry partner): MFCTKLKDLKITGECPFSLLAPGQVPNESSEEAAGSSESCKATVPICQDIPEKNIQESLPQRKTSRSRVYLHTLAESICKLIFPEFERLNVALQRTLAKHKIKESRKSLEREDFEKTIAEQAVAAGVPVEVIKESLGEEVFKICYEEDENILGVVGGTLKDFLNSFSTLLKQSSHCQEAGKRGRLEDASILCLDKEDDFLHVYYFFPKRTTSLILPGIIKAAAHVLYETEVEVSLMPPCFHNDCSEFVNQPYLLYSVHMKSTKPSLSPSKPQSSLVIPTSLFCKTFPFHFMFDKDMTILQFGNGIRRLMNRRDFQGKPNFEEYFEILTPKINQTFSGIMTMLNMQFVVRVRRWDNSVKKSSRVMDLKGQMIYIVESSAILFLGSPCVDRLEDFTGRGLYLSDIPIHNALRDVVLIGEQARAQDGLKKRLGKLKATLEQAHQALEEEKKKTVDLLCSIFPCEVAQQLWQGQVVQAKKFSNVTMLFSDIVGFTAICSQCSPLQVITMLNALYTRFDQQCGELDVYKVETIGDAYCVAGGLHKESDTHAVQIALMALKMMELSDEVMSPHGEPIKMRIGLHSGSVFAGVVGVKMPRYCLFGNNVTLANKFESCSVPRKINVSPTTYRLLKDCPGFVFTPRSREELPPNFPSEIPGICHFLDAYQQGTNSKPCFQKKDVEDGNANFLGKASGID
human soluble guanylate cyclase alpha 1 and beta 1 subunits (sGC), sequence (Q02153 whole entry): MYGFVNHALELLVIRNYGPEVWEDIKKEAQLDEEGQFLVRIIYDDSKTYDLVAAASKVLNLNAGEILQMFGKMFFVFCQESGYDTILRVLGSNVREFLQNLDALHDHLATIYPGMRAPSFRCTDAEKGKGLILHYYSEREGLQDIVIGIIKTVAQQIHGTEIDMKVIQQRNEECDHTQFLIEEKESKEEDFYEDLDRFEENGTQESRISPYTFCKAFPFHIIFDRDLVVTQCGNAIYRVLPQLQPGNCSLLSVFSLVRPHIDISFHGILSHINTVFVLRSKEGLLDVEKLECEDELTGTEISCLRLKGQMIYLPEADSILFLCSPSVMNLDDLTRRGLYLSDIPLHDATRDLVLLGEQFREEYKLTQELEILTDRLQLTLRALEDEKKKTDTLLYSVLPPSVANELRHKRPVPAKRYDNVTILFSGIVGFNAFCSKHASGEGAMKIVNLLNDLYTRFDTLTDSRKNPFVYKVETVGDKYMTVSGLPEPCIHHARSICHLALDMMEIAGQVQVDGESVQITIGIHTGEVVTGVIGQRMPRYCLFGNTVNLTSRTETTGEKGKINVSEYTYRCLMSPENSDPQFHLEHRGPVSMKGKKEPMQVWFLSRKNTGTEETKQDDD
Method in brief: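 Heme-oxidized conditions: ODQ (40 microM, 1 h) pretreatment of CHO cells stably expressing human α1/β1 sGC, in buffer containing 0.1% BSA and IBMX.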

[2] = Human liver microsome (HLM) metabolic stability assay; assay type: in vitro ADME; settings: human liver microsomes
Method in brief: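 Compound at 1 uM incubated with human liver microsomes at 37° C. for 60 min after NADPH addition. Aliquots quenched in cold acetonitrile at 0, 5, 15, 30 and 60 min and analysed by LC/MS/MS. t1/2 from ln(% remaining) vs time slope; CLint, CLh and % Qh derived from it (n=1).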

[3] = pH 2.2, aqueous buffer, Solubility (pH 2.2)
[4] = pH 4.5, aqueous buffer, Solubility (pH 4.5)
[5] = pH 6.8, aqueous buffer, Solubility (pH 6.8)

Row | solubility at 24 h (physchem; [3]) [µg/mL] | solubility at 24 h (physchem; [4]) [µg/mL] | solubility at 24 h (physchem; [5]) [µg/mL] | EC50 [1] [nM] | Metabolic stability (Qh %), % hepatic blood flow [2] [%] | Compound
1 | 141 (≈ 233 µM) | 136 (≈ 225 µM) | 133 (≈ 219 µM) | 7 | <24 | CO[C@H]1CN(c2nc(-c3cccc(C)c3OCc3ccc4c(c3)[C@H](C)CN(C3CCOCC3)CC4)cs2)CC[C@H]1C(=O)O [Compound 313]
2 | 122 (≈ 212 µM) | 85.1 (≈ 148 µM) | 68 (≈ 118 µM) | 6 | <24 | CO[C@H]1CN(c2cccc(-c3cccc(C)c3OCc3ccc4c(c3F)CCN(C3COC3)CC4)n2)CC[C@H]1C(=O)O [Compound 278]
3 | 129 (≈ 214 µM) | 127 (≈ 211 µM) | 120 (≈ 199 µM) | 13 | <24 | COc1cc(COc2c(C)cccc2-c2cccc(N3CC[C@H](C(=O)O)[C@H](OC)C3)n2)cc2c1CN(C1CCOCC1)CC2 [Compound 249]
4 | 120 (≈ 214 µM) | 18 (≈ 32.2 µM) | 1.3 (≈ 2.32 µM) | 3 | <24 | Cc1ccc(OCc2ccc3c(c2C)CCN(C2CCOC2)C3)c(-c2csc(N3CC[C@@]4(C(=O)O)C[C@H]4C3)n2)c1 (some centres unmarked) [Compound 119]
5 | 120 (≈ 214 µM) | 66 (≈ 118 µM) | 31 (≈ 55.4 µM) | 2 | 49 | Cc1cc(COc2c(C)cccc2-c2csc(N3CC[C@@]4(C(=O)O)C[C@H]4C3)n2)cc2c1CN(C1CCOC1)CC2 (some centres unmarked) [Compound 95]
6 | 110 (≈ 192 µM) | 95 (≈ 166 µM) | 64 (≈ 112 µM) | 71 | <24 | CO[C@@H]1CN(c2cccc(-c3cc(C)ccc3OCc3cc(C)c4c(c3)CCN(C3CCOC3)C4)n2)CC[C@@H]1C(=O)O (some centres unmarked) [Compound 77]
7 | 150 (≈ 278 µM) | 110 (≈ 204 µM) | 44 (≈ 81.5 µM) | 12 | 49 | Cc1c(COc2ccccc2-c2cccc(N3CC[C@@]4(C(=O)O)C[C@H]4C3)n2)ccc2c1CCN([C@@H]1CCOC1)C2 [Compound 8]
8 | 126 (≈ 206 µM) | 116 (≈ 191 µM) | 115 (≈ 189 µM) | 4 | <24 | CO[C@H]1CN(c2nc(-c3cccc(C)c3OCc3cc(C)c4c(c3F)CCN(C3CCOCC3)C4)cs2)CC[C@H]1C(=O)O [Compound 242]
9 | 116 (≈ 220 µM) | 82.3 (≈ 155 µM) | 62.3 (≈ 118 µM) | 154 | <24 | CO[C@@H]1CN(c2cccc(-c3cccc(C)c3OCc3ccc4c(c3C)CCN(C)CC4)n2)CC[C@@H]1C(=O)O [Compound 300]
10 | 120 (≈ 206 µM) | 100 (≈ 171 µM) | 79 (≈ 135 µM) | 6 | <24 | COC[C@H]1N(c2cccc(-c3cccc(C)c3OCc3ccc4c(c3C)CCN(C3COC3)CC4)n2)C[C@@H]2C[C@@]21C(=O)O [Compound 60]
11 | 167 (≈ 274 µM) | 162 (≈ 266 µM) | 158 (≈ 259 µM) | 40 | 44 | COC[C@H]1N(c2cccc(-c3cccc(C)c3OCc3cc(C#N)c4c(c3)CCN(C3CCOCC3)C4)n2)C[C@@H]2C[C@@]21C(=O)O [Compound 217]
12 | 117 (≈ 187 µM) | 53.7 (≈ 85.5 µM) | 46.7 (≈ 74.3 µM) | 15 | <24 | COc1cc(COc2c(Cl)cccc2-c2csc(N3CC[C@H](C(=O)O)[C@H](OC)C3)n2)cc2c1CN(C1CCOCC1)CC2 [Compound 265]
13 | 110 (≈ 192 µM) | 74 (≈ 129 µM) | 62 (≈ 108 µM) | 10 | <24 | Cc1cccc(-c2csc(N3C[C@@H]4C[C@]4(C(=O)O)C3)n2)c1OCc1ccc2c(c1C)CCN(C1CCOCC1)CC2 [Compound 144]
